Measured values taken from patent publication US20090311217A1, “3-SUBSTITUTED-1H-INDOLE COMPOUNDS, THEIR USE AS MTOR KINASE AND PI3 KINASE INHIBITORS, AND THEIR SYNTHESES” (priority 2008, published 2009).

How the values were obtained:
PI3K-alpha = PI3K-alpha (Homo sapiens, UniProt P42336); experiment: PI3K-alpha fluorescence polarization assay; type: biochemical; settings: read-out: PI3Kα Avg. IC50
PI3K-gamma = PI3K-gamma (Homo sapiens, UniProt P48736); experiment: PI3K-gamma fluorescence polarization assay; type: biochemical; settings: PI3Kγ Avg. IC50
Outline: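 Inhibition is derived from a polarization signal: after a 1 h, 25° C kinase step (25 μM ATP, 2.5 μM diC8-PIP2, pH 7), EDTA stops the reaction and the GRP1 PH domain/TMR-IP4 pair reports lipid product.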

PI3K-gamma, sequence (P48736 whole entry, species assumed, the tested form may be a part): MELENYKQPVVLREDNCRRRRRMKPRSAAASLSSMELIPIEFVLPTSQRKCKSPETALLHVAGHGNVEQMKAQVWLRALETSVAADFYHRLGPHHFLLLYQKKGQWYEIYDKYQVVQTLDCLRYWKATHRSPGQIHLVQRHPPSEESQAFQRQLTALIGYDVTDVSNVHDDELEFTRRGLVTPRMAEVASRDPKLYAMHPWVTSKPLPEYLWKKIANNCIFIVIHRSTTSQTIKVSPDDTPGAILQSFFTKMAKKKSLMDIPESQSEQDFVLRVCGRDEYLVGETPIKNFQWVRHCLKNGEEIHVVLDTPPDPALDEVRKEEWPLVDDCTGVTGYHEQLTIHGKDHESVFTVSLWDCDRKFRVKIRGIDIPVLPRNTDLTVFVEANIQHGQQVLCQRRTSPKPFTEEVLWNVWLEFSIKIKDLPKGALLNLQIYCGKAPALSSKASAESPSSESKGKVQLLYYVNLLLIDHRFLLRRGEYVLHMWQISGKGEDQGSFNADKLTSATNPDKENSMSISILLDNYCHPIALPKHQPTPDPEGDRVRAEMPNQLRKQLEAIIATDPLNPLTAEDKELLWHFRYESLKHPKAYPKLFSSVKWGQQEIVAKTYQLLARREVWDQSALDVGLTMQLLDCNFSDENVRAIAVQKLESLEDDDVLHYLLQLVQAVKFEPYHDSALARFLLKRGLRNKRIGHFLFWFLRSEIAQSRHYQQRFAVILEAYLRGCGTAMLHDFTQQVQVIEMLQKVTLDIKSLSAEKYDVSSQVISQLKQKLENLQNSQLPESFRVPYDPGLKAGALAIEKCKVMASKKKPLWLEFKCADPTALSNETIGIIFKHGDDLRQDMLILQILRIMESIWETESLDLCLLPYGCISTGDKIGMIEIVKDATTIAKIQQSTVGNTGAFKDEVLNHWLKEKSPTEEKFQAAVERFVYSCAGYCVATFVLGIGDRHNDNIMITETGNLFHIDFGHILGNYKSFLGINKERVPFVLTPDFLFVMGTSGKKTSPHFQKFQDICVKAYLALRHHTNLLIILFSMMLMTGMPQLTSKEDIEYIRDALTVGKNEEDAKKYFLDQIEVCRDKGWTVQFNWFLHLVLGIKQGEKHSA
PI3K-alpha, sequence (P42336 whole entry, species assumed): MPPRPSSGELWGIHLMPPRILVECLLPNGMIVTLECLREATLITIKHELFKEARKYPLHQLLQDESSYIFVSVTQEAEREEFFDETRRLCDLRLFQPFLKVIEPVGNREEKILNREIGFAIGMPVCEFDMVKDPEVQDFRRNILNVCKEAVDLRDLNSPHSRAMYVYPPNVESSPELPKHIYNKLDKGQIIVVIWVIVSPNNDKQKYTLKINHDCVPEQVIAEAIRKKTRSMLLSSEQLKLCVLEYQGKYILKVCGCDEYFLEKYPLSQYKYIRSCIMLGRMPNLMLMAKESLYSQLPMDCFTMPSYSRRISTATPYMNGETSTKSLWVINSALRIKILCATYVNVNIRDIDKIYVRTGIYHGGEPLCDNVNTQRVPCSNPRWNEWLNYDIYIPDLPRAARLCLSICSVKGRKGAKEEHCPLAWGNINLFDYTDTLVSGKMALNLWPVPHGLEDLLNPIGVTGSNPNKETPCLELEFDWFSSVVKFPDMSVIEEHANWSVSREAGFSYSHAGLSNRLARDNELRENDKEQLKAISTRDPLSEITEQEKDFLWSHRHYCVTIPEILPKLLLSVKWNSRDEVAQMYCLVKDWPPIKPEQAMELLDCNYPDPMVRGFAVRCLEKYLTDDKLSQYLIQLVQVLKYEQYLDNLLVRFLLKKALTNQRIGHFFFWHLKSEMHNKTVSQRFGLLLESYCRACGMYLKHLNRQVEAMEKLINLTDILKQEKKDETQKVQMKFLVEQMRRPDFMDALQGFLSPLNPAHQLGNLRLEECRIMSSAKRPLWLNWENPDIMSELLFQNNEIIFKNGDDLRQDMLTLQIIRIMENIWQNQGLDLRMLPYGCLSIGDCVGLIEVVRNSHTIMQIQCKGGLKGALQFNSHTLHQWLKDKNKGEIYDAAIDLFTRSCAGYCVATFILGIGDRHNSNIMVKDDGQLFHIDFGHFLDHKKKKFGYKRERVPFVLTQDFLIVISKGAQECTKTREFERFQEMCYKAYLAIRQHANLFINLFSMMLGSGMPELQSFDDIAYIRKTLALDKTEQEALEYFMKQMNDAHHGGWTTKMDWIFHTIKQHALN
PI3K-alpha, sequence (P27986 whole entry partner, species assumed): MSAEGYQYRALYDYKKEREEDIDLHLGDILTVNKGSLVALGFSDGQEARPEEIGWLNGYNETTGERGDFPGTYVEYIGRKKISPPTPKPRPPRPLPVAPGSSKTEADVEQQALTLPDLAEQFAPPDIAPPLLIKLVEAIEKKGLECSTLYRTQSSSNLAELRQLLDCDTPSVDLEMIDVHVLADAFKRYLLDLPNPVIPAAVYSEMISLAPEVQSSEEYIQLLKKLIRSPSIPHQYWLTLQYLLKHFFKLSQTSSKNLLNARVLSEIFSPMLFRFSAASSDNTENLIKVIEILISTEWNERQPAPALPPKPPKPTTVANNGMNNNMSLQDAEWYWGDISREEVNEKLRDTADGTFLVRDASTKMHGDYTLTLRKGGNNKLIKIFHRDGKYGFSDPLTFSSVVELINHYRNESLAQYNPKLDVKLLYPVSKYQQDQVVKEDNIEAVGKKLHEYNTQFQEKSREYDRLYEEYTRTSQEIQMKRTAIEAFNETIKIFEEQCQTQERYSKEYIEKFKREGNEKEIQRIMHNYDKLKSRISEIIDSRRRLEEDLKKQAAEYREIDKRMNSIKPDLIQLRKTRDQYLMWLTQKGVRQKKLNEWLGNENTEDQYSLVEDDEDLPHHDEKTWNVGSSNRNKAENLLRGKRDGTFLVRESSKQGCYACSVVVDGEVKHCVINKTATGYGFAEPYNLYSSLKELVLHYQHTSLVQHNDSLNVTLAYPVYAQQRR

Row | IC50 (PI3K-alpha) | IC50 (PI3K-gamma) | SMILES
1 | 64.5 nM | 1130 nM | C=CCNC(=O)Nc1ccc2c(c1)C(=O)/C(=C/c1cn(CCN3CCN(C)CC3)c3ccc(OC)cc13)O2 [Compound 550, 1-allyl-3-[(2Z)-2-({5-methoxy-1-[2-(4-methylpiperazin-1-yl)ethyl]-1H-indol-3-yl}methylene)-3-oxo-2,3-dihydro-1-benzofuran-5-yl]urea]
2 | 192 nM | 3150 nM | COc1ccc2c(c1)c(/C=C1\Oc3ccc(NC(N)=O)cc3C1=O)cn2CCN1CCN(C)CC1 [Compound 551, 1-[(2Z)-2-({5-methoxy-1-[2-(4-methylpiperazin-1-yl)ethyl]-1H-indol-3-yl}methylene)-3-oxo-2,3-dihydro-1-benzofuran-5-yl]urea]
3 | 355 nM | > 10000 nM | COc1ccc2c(c1)c(/C=C1\Oc3ccc(NC(=O)NC4CNC4)cc3C1=O)cn2CCN1CCN(C)CC1 [Compound 552, 1-azetidin-3-yl-3-[(2Z)-2-({5-methoxy-1-[2-(4-methylpiperazin-1-yl)ethyl]-1Hindol-3-yl}methylene)-3-oxo-2,3-dihydro-1-benzofuran-5-yl]urea]
4 | 31 nM | 4830 nM | CNC(=O)Nc1ccc2c(c1)C(=O)/C(=C/c1cn(CCN3CCN(C)CC3)c3ccc(OC)cc13)O2 [Compound 553, 1-[(2Z)-2-({5-methoxy-1-[2-(4-methylpiperazin-1-yl)ethyl]-1H-indol-3-yl}methylene)-3-oxo-2,3-dihydro-1-benzofuran-5-yl]-3-methylurea]
5 | 73 nM | 5260 nM | COc1ccc2c(c1)c(/C=C1\Oc3ccc(NC(=O)NCCO)cc3C1=O)cn2CCCN(C)C [Compound 554, 1-[(2Z)-2-({1-[3-(dimethylamino)propyl]-5-methoxy-1H-indol-3-yl}methylene)-3-oxo-2,3-dihydro-1-benzofuran-5-yl]-3-(2-hydroxyethyl)urea]
6 | 48 nM | 1890 nM | COc1cc(/C=C/CN2CCCCC2)c2[nH]cc(/C=C3\Oc4cc(O)ccc4C3=O)c2c1 [Compound 555, (2Z)-6-hydroxy-2-({5-methoxy-7-[(1E)-3-piperidin-1-ylprop-1-en-1-yl]-1H-indol-3-yl}methylene)-1-benzofuran-3(2H)-one]
7 | 2.15 nM | 835 nM | CNC(=O)Nc1ccc2c(c1)C(=O)/C(=C/c1c(C)n(CCN3CCN(C)CC3)c3ccc(OC)cc13)O2 [Compound 556, 1-[(2Z)-2-({5-methoxy-2-methyl-1-[2-(4-methylpiperazin-1-yl)ethyl]-1H-indol-3-yl}methylene)-3-oxo-2,3-dihydro-1-benzofuran-5-yl]-3-methylurea]
8 | 1200 nM | > 10000 nM | Cn1cc(/C=C2/Oc3cc(O)cc(O)c3C2=O)c2c(-c3ccccc3)cccc21 [Compound 557, (2E)-4,6-dihydroxy-2-[(1-methyl-4-phenyl-1H-indol-3-yl)methylene]-1-benzofuran-3(2H)-one]
9 | 2.25 nM | 537 nM | CNC(=O)Nc1ccc2c(c1)C(=O)/C(=C/c1c(C3CC3)n(CCN3CCN(C)CC3)c3ccc(OC)cc13)O2 [Compound 559, 1-[(2Z)-2-({2-cyclopropyl-5-methoxy-1-[2-(4-methylpiperazin-1-yl)ethyl]-1Hindol-3-yl}methylene)-3-oxo-2,3-dihydro-1-benzofuran-5-yl]-3-methylurea]
10 | 132 nM | 1600 nM | COc1ccc2c(c1)c(/C=C1\Oc3ccc(NC(=O)NC4CC4)cc3C1=O)cn2CCCN(C)C [Compound 560, 1-cyclopropyl-3-[(2Z)-2-({1-[3-(dimethylamino)propyl]-5-methoxy-1H-indol-3-yl}methylene)-3-oxo-2,3-dihydro-1-benzofuran-5-yl]urea]
11 | 3.15 nM | 378 nM | CNC(=O)Nc1ccc2c(c1)C(=O)/C(=C/c1c(C3CCCC3)n(CCN3CCN(C)CC3)c3ccc(OC)cc13)O2 [Compound 561, 1-[(2Z)-2-({2-cyclopentyl-5-methoxy-1-[2-(4-methylpiperazin-1-yl)ethyl]-1Hindol-3-yl}methylene)-3-oxo-2,3-dihydro-1-benzofuran-5-yl]-3-methylurea]
12 | 2.85 nM | 209 nM | CNC(=O)Nc1ccc2c(c1)C(=O)/C(=C/c1c(C3CCC3)n(CCN3CCN(C)CC3)c3ccc(OC)cc13)O2 [Compound 562, 1-[(2Z)-2-({2-cyclobutyl-5-methoxy-1-[2-(4-methylpiperazin-1-yl)ethyl]-1H-indol-3-yl}methylene)-3-oxo-2,3-dihydro-1-benzofuran-5-yl]-3-methylurea]
13 | 35.5 nM | 5220 nM | CNCCNC(=O)Nc1ccc2c(c1)C(=O)/C(=C/c1cn(CCN3CCN(C)CC3)c3ccc(OC)cc13)O2 [Compound 563, 1-[(2Z)-2-({5-methoxy-1-[2-(4-methylpiperazin-1-yl)ethyl]-1H-indol-3-yl}methylene)-3-oxo-2,3-dihydro-1-benzofuran-5-yl]-3-[2-(methylamino)ethyl]urea]
14 | 95.5 nM | 7620 nM | CNCCCNC(=O)Nc1ccc2c(c1)C(=O)/C(=C/c1cn(CCN3CCN(C)CC3)c3ccc(OC)cc13)O2 [Compound 564, 1-[(2Z)-2-({5-methoxy-1-[2-(4-methylpiperazin-1-yl)ethyl]-1H-indol-3-yl}methylene)-3-oxo-2,3-dihydro-1-benzofuran-5-yl]-3-[3-(methylamino)propyl]urea]
15 | 114 nM | > 10000 nM | COc1ccc2c(c1)c(/C=C1\Oc3ccc(NC(=O)NCCCCN)cc3C1=O)cn2CCN1CCN(C)CC1 [Compound 565, 1-(4-aminobutyl)-3-[(2Z)-2-({5-methoxy-1-[2-(4-methylpiperazin-1-yl)ethyl]-1Hindol-3-yl}methylene)-3-oxo-2,3-dihydro-1-benzofuran-5-yl]urea]
16 | 93.5 nM | 7790 nM | COc1ccc2c(c1)c(/C=C1\Oc3ccc(NC(=O)NCCCN)cc3C1=O)cn2CCN1CCN(C)CC1 [Compound 566, 1-(3-aminopropyl)-3-[(2Z)-2-({5-methoxy-1-[2-(4-methylpiperazin-1-yl)ethyl]-1Hindol-3-yl}methylene)-3-oxo-2,3-dihydro-1-benzofuran-5-yl]urea]
17 | 164 nM | 1550 nM | CNC(=O)Nc1ccc2c(c1)C(=O)/C(=C/c1c[nH]c3c(/C=C/CN4CCOCC4)cc(OC)cc13)O2 [Compound 567, 1-[(2Z)-2-({5-methoxy-7-[(1E)-3-morpholin-4-ylprop-1-en-1-yl]-1H-indol-3-yl}methylene)-3-oxo-2,3-dihydro-1-benzofuran-5-yl]-3-methylurea]
18 | 477 nM | 3390 nM | COc1ccc2c(c1)c(/C=C1\Oc3ccc(NC(=O)NCCCO)cc3C1=O)cn2CCCN(C)C [Compound 568, 1-[(2Z)-2-({1-[3-(dimethylamino)propyl]-5-methoxy-1H-indol-3-yl}methylene)-3-oxo-2,3-dihydro-1-benzofuran-5-yl]-3-(3-hydroxypropyl)urea]
19 | 242 nM | 6500 nM | COc1ccc2c(c1)c(/C=C1\Oc3ccc(NC(=O)NCCCN(C)C)cc3C1=O)cn2CCN1CCN(C)CC1 [Compound 569, 1-[3-(dimethylamino)propyl]-3-[(2Z)-2-({5-methoxy-1-[2-(4-methylpiperazin-1-yl)ethyl]-1H-indol-3-yl}methylene)-3-oxo-2,3-dihydro-1-benzofuran-5-yl]urea]
20 | 8410 nM | 6490 nM | CNC(=O)Nc1ccc2c(c1)C(=O)/C(=C/c1c[nH]c3c(CN4CCOCC4)cc(OC)cc13)O2 [Compound 570, 1-[(2Z)-2-{[5-methoxy-7-(morpholin-4-ylmethyl)-1H-indol-3-yl]methylene}-3-oxo-2,3-dihydro-1-benzofuran-5-yl]-3-methylurea]
21 | 612 nM | 6440 nM | CNC(=O)Nc1ccc2c(c1)C(=O)/C(=C/c1c[nH]c3c(CN4CCN(C)CC4)cc(OC)cc13)O2 [Compound 571, 1-[(2Z)-2-({5-methoxy-7-[(4-methylpiperazin-1-yl)methyl]-1H-indol-3-yl}methylene)-3-oxo-2,3-dihydro-1-benzofuran-5-yl]-3-methylurea]
22 | 1660 nM | 2320 nM | CNC(=O)Nc1ccc2c(c1)C(=O)/C(=C/c1cn(C)c3c(CCCN4CCN(C)CC4)cc(OC)cc13)O2 [Compound 572, 1-[(2Z)-2-({5-methoxy-1-methyl-7-[3-(4-methylpiperazin-1-yl)propyl]-1H-indol-3-yl}methylene)-3-oxo-2,3-dihydro-1-benzofuran-5-yl]-3-methylurea]
23 | 52 nM | 1590 nM | CNC(=O)Nc1ccc2c(c1)C(=O)/C(=C/c1c[nH]c3c(/C=C/CN(C)C)cc(OC)cc13)O2 [Compound 573, 1-[(2Z)-2-({7-[(1E)-3-(dimethylamino)prop-1-en-1-yl]-5-methoxy-1H-indol-3-yl}methylene)-3-oxo-2,3-dihydro-1-benzofuran-5-yl]-3-methylurea]
24 | 97.5 nM | 2990 nM | COc1ccc2c(c1)c(/C=C1\Oc3ccc(NC(=O)NCCN(C)C)cc3C1=O)cn2CCN1CCN(C)CC1 [Compound 574, 1-[2-(dimethylamino)ethyl]-3-[(2Z)-2-({5-methoxy-1-[2-(4-methylpiperazin-1-yl)ethyl]-1H-indol-3-yl}methylene)-3-oxo-2,3-dihydro-1-benzofuran-5-yl]urea]
25 | 1.25 nM | 206 nM | CNC(=O)Nc1ccc2c(c1)C(=O)/C(=C/c1c(-c3ccccc3)n(CCN3CCN(C)CC3)c3ccc(OC)cc13)O2 [Compound 575, 1-[(2Z)-2-({5-methoxy-1-[2-(4-methylpiperazin-1-yl)ethyl]-2-phenyl-1H-indol-3-yl}methylene)-3-oxo-2,3-dihydro-1-benzofuran-5-yl]-3-methylurea]
26 | 0.6 nM | 27.5 nM | COc1ccc2c(c1)c(/C=C1\Oc3ccc(NC(=O)NCCN)cc3C1=O)c(-c1ccccc1)n2CCN1CCN(C)CC1 [Compound 576, 1-(2-aminoethyl)-3-[(2Z)-2-({5-methoxy-1-[2-(4-methylpiperazin-1-yl)ethyl]-2-phenyl-1H-indol-3-yl}methylene)-3-oxo-2,3-dihydro-1-benzofuran-5-yl]urea]
